Assay results: patent publication US20050164983A1, “Carboxyl-reduced derivatives of dermatan sulfate, preparation thereof, use thereof as a medicinal product and the pharmaceutical compositions containing them” (Aventis Pharma S.A., priority 2003, published 2005)

Legend:
aggrecanase = assay: Effect on the aggrecanase in synovial fluids or on preparations of recombinant ADAMTS protein (Agg1mut substrate, BC-3 ELISA); format: biochemical; details: for Estimated IC50: aggrecanase, substrate conversion
Description: Effect of the carboxyl-reduced derivatives according to the invention on the aggrecanase in synovial fluids or on preparations of recombinant ADAMTS protein.
The analysis is carried out on 96-well plates. Before the analysis, serial dilutions of the assay compounds are prepared in an aqueous solution.
In each well, a fixed volume of synovial fluid or aggrecanase activity generating a known increase, between 1.0 and 1.4 absorbance units (405 nm), under the conditions of the analysis, is mixed with 3 μl of solution of compound from the respective dilution step. Dulbecco's modified Eagle's medium (DMEM) is added to each well to give a final volume of 300 μl. The plate is then incubated for 1 hour at 37° C. in a carbon dioxide atmosphere.
Preparation of the analytical plate:
In a first step, the microplate is coated with 100 μl per well of a commercial goat anti-mouse IgG antibody for 1 hour at ambient temperature (5 μg/ml in a phosphate buffered saline solution, pH 7.4 [PBS buffer]). After washing with the PBS buffer containing 0.1% of Tween-20 (washing buffer), the wells are blocked by means of a step consisting of a one hour incubation with 100 μl per well of 5% bovine serum albumin in a PBS buffer containing 0.05% of Tween-20.
After another rinse of the analytical plate with the washing buffer, the complete set of mixtures originating from the preceding digestion is transferred to this plate, well by well, and incubated at ambient temperature for one hour. The plate is again washed as above. Next, 100 μl of the second antibody (anti-human IgG antibody labeled with peroxidase, 1:1000 in PBS containing 0.5% of BSA and 0.05% of Tween-20) are added to each well, with subsequent incubation at ambient temperature again for one hour. […] The measurement is carried out by means of the screen mode using detection at 405 nm relative to a reference filter (620 nm) with automatic readings at 5-second intervals. The development is stopped as soon as the maximum signal (405 nm) in the absorbance range of 1.0 to 1.4 is reached.

bovine factor Xa [1] = target: T1, bovine factor Xa (Bos taurus, UniProt P00743); assay: Inhibition of factor Xa (chromogenic substrate S-2765, with human antithrombin III); format: biochemical; details: calibrated against Enoxaparin
T1 sequence (P01008 33-464 partner): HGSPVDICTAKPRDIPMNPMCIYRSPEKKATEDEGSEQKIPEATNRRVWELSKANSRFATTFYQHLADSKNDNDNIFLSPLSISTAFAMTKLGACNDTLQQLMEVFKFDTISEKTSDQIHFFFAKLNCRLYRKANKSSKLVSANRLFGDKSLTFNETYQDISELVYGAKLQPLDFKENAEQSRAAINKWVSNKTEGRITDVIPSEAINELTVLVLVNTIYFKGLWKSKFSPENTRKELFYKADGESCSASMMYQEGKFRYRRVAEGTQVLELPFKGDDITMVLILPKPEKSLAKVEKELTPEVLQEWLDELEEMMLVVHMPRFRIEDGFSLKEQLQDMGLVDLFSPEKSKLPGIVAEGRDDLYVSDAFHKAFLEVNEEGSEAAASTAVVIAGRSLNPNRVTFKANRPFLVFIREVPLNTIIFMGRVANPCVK
T1 sequence (P00743 234-492 limits assumed): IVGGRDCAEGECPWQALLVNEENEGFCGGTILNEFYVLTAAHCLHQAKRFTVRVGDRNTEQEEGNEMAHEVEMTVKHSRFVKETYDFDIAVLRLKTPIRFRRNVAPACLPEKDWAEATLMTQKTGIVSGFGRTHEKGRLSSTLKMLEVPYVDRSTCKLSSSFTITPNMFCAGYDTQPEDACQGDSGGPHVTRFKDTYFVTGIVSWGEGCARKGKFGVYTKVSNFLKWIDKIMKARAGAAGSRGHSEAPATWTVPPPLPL
Description: For the calibration, a standard sample of low molecular weight heparin (Enoxaparin) was used as reference.
The serial dilutions of the assay compound are prepared in a 0.046 M Tris buffer, pH 8.4, containing 0.15 M NaCl, 0.007 M EDTA, 0.1% of Tween 80 and 0.12 IU/ml of human antithrombin III. The samples of 50 μl of the respective dilutions are incubated with 50 μl of bovine factor Xa (13.6 U/ml) at 37° C. for 80 seconds. Next, 50 μl of chromogenic substrate, 1.1 mM S-2765, are added. The absorbance at 405 nm is measured in a photometer. The activity of the deblocked factor Xa is indicated by the emission of p-nitroaniline from the substrate.

[2] = target: T2, human neutrophil elastase (Homo sapiens, UniProt P08246); assay: Inhibitory activity on human neutrophil elastase; format: biochemical; details: 15 min incubation
T2 construct: purchased Sigma E8140
T2 sequence (P08246 30-267): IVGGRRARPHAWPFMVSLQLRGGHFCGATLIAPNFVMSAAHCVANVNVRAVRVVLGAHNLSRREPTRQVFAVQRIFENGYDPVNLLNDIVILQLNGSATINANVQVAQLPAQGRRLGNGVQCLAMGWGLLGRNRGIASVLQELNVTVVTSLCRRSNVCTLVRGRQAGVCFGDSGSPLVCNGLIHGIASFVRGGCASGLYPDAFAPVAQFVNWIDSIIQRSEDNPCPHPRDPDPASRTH
Description: Effects of the Carboxyl-reduced Derivatives According to the Invention on Human Neutrophil Elastase
A commercially available enzyme (for example, human neutrophil elastase, Sigma No. E8140) is reconstituted in aliquots of 0.1 mg per vial with 0.276 ml of 50 mM sodium acetate buffer, pH 5.5, containing 200 mM NaCl (stock solution of the enzyme); 11 μl of this stock solution are diluted with 1.1 ml of the above HEPES buffer (enzyme assay solution).
The substrate solution is prepared by dissolving 118 mg of methoxy-succinyl-L-Ala-L-Ala-L-Pro-L-Val-p-nitro-anilide in 1 ml of DMSO (stock solution, for example Sigma No. M4765). In view of the application in the analysis, 9 μl of stock solution are then diluted in 1.19 ml of H2O.
Serial dilutions of the assay compounds are prepared in 100 mM of HEPES buffer containing 500 mM of NaCl. The analysis is carried out on colorless 96-well polystyrene microplates (for example, Corning Costar, No. 3695.
10 μl of enzyme assay solution are mixed with 10 μl of the respective solution of diluted compound and 10 μl of the substrate solution. After incubation for 15 min, the cleavage of the substrate is read as increase in absorbance at 405 nm.

bovine factor Xa [3] = target: T1, bovine factor Xa; details: reference low-molecular weight heparin used for calibration; cited from earlier work
[4] = conc. of glycosaminoglycan 0.0001 μg/ml
[5] = conc. of glycosaminoglycan 0.001 μg/ml
[6] = conc. of glycosaminoglycan 0.01 μg/ml
[7] = conc. of glycosaminoglycan 0.1 μg/ml

Row | Substance | Estimated IC50 (aggrecanase) | % Conversion (aggrecanase; [4]) | % Conversion (aggrecanase; [5]) | % Conversion (aggrecanase; [6]) | % Conversion (aggrecanase; [7]) | % Conversion (aggrecanase; conc. of glycosaminoglycan 1.0 μg/ml) | Anti-factor Xa activity (bovine factor Xa [1]) | IC50 [2] | Anti-factor Xa activity of the reference standard (bovine factor Xa [3])
1 | 6-O-sulfated, Carboxyl-reduced Dermatan Sulfate Sodium Salt [Example 5] | 0.26 µg/mL | 100.0% | 96.4% | 84.3% | 70.2% | 36.1% | 0 U/mg | 10.0 µg/mL | 
2 | Carboxyl-reduced Dermatan Sulfate Sodium Salt [Example 1] | ~7.9 µg/mL |  |  |  |  |  |  |  | 
3 | Enoxaparin |  |  |  |  |  |  |  |  | 100 U/mg
4 | Persulfated, Carboxyl-reduced Dermatan Sulfate Sodium Salt [Example 4] | 0.007 µg/mL | 100.0% | 93.4% | 27.4% | 18.0% |  | 1.1 U/mg | 0.11 µg/mL | 
